Values after ≈ are worked out from the molar mass of the structure shown. Where two headings read alike, the source gives them in different places. Values belong to the compound of their own block, whether it stands above or below them.
Assays:
PANC-1 cells = test: MTT cell activity assay (inhibitory activity against PANC-1 cells); assay type: cell-based
Protocol: A total of 3000 PANC-1 cells were resuspended in 200 μL of culture medium and seeded into 96-well plates. After 24 h, the cells were treated with the compound and incubated for an additional 72 h. Following the incubation, 20 μL of 5 mg/mL MTT solution (Solarbio, China) was added to each well in the dark, and the cells were incubated for another 4 h. After incubation, the culture medium was discarded, and the wells were washed with PBS to remove any residual medium. Then, 200 μL of DMSO was added to each well to fully dissolve the formazan crystals, and the solution was mixed thoroughly. The absorbance was measured at 492 nm/570 nm, and the data were analyzed using GraphPad Prism.

[1] = Preliminary water solubility test; assay type: physicochemical; conditions: thermodynamic from solid, 25 °C, ultrasonic treatment 30 min, visual
PANC-1 xenograft tumor = tested on: PANC-1 xenograft tumor
Protocol: Furthermore, a xenografted murine subcutaneous tumor model was employed to evaluate the effects of majusculamide D and the optimized analogues 1c and 1n (Figure 1B). PANC1-bearing BALB/c nude mice were separated randomly, with a total of six mice in each group. Gemcitabine was chosen as the positive drug; the mice were then administered intravenous doses of 1c (5 mg/kg), 1n (5 mg/kg), 1a (5 mg/kg), and gemcitabine (20 mg/kg) every other day for 24 days.
A total of 4 × 10^6 PANC-1 cells suspended in 100 μL PBS were subcutaneously injected into the right shoulder region of BALB/c nude mice. When the tumor volume reached approximately 200 mm^3, the mice were euthanized, and the tumor tissues were harvested and designated as F1 generation. Tumor tissues were then cut into small cubes measuring approximately 3 × 3 × 3 mm, which were implanted into new BALB/c mice to propagate the tumors. This procedure was repeated to obtain the F2 generation of tumors. Finally, mice bearing F3 generation transplant tumors were used for drug treatment experiments. When the tumor volume reached approximately 80–100 mm^3, the mice were randomly divided into five groups (n = 6): control group, 5 mg/kg compound 1a group, 5 mg/kg compound 1c group, 5 mg/kg compound 1n group, and 20 mg/kg gemcitabine group. The compounds 1a, 1c, and 1n were dissolved in DMSO and then diluted with 0.9% physiological saline to achieve a final concentration of 0.5 mg/mL as the dosing concentration. Gemcitabine was dissolved directly in 0.9% saline to achieve a final concentration of 2 mg/mL as the dosing concentration. The compounds were administered intravenously every two days, alternating between the left and right tail veins to minimize vein damage. Injections were performed using ultra-fine syringes (30G needles) to reduce stress and ensure consistent delivery. The body weight and tumor volume of the mice were measured every four days. On day 24, the mice were euthanized, and the tumor weights were recorded. Tumor volume (V) was calculated using the formula: V = (ab^2)/2, with “a” representing the long diameter of the tumor and “b” representing the short diameter of the tumor. […] Tumor weight was used to calculate the tumor inhibition rate (Figure 1G).

[2] = Stability in mouse plasma assay; assay type: in vitro ADME; conditions: 1 μM, 37 °C, 2 h incubation
Protocol: Thaw plasma at room temperature and vortex for 3–5 s. Centrifuge at 3000 rpm at 10 °C for 10 min, and carefully transfer the supernatant to a new Eppendorf tube. Preincubate the plasma at 37 °C for 10 min. Prepare a series of test substances by adding 3 μL of the compound (100 μM) to 297 μL of plasma to achieve a final concentration of 1 μM, ensuring that the DMSO concentration in plasma is 1%. Propantheline bromide is used as a positive control. Incubate the mixture at 37 °C, and at specified time points (0, 1, 2, 4, and 24 h), take 50 μL of the plasma sample. To terminate the reaction, add 250 μL of acetonitrile (containing an internal standard), vortex thoroughly, and centrifuge at 16,000 rcf (4 °C) for 10 min. Collect 130 μL of the supernatant and dilute with 70 μL of pure water for LC-MS/MS analysis. The concentration of the test substances in plasma samples was determined using LC-MS/MS. The stability of the test substance in plasma was evaluated by measuring the remaining percentage of the compound in the plasma over time.

[3] = Homo sapiens, PANC-1, 72 h, read-out: IC50 (nM), inhibitory activity against PANC-1 cells (Table 1), PANC-1 cells, 72 h incubation, mean ± SD, n = 3
[4] = Homo sapiens, PANC-1 cells, 72 h incubation, mean ± SD, n = 3, read-out: IC50 (nM), inhibitory activity against PANC-1 cells (Table 1)
[5] = Homo sapiens, PANC-1 cells, 72 h incubation, mean ± SD, n = 3, Table 2 series, read-out: IC50 (nM), inhibitory activity against PANC-1 cells (Table 2)
[6] = read-out: IC50 (nM), inhibitory activity against PANC-1 cells (Table 1), PANC-1 cells, 72 h incubation, mean ± SD, n = 3

Compound: CCCCC(C)CC(C)C(=O)N(C)C(Cc1ccccc1)C(=O)NC(C(=O)N(C)C(C(=O)N1CC(O)CC1C(=O)N1C(=O)C=CC1C)C(C)C)C(C)OC(C)=O (centres unmarked) [Compound 1h]
IC50 (PANC-1 cells; [3]): 72 ± 21.9 nM

Compound: CCCCC(C)CC(C)C(=O)N(C)C(Cc1ccc(OC)cc1)C(=O)NC(C(=O)N(C)C(C(=O)N1CC(O)CC1C(=O)N1C(=O)C=CC1C)C(C)C)C(C)NC(C)=O (centres unmarked) [Compound 1e]
IC50 (PANC-1 cells; [4]): 2.94 ± 0.93 nM

Compound: CCCC[C@@H](C)C[C@@H](C)C(=O)N(C)[C@@H](Cc1ccc(OC)cc1)C(=O)N[C@H](C(=O)N(C)[C@H](C(=O)N1C[C@@H](O)C[C@H]1C(=O)N1C(=O)C=C[C@@H]1C)C(C)C)[C@@H](C)NC(=O)[C@H](C)N [Compound 16h]
solubility [1]: 360 µg/mL (≈ 429 µM)
IC50 (PANC-1 cells; [5]): 79.9 ± 45.9 nM

Compound: CCCC[C@@H](C)C[C@@H](C)C(=O)N(C)[C@@H](Cc1ccc(OC)cc1)C(=O)N[C@H](C(=O)N(C)[C@H](C(=O)N1C[C@@H](O)C[C@H]1C(=O)N1C(=O)C=C[C@@H]1C)C(C)C)[C@@H](C)NC(=O)[C@@H](N)Cc1ccc(O)cc1 [Compound 16m]
solubility [1]: 160 µg/mL (≈ 172 µM)
IC50 (PANC-1 cells; [5]): 278 ± 14.9 nM

Compound: CCCC[C@@H](C)C[C@@H](C)C(=O)N(C)[C@@H](Cc1ccc(OC)cc1)C(=O)N[C@H](C(=O)N(C)[C@H](C(=O)N1C[C@@H](O)C[C@H]1C(=O)N1C(=O)C=C[C@@H]1C)C(C)C)[C@@H](C)NC(=O)C1CCC(=O)N1 (some centres unmarked) [Compound 16k]
solubility [1]: 330 µg/mL (≈ 375 µM)
IC50 (PANC-1 cells; [5]): 472 ± 69.7 nM

Compound: CCCC[C@@H](C)C[C@@H](C)C(=O)N(C)[C@@H](Cc1ccc(OC)cc1)C(=O)N[C@H](C(=O)N(C)[C@H](C(=O)N1C[C@@H](O)C[C@H]1C(=O)N1C(=O)C=C[C@@H]1C)C(C)C)[C@@H](C)NC(=O)[C@@H](N)Cc1c[nH]c2ccccc12 [Compound 16c]
solubility [1]: 200 µg/mL (≈ 209 µM)
IC50 (PANC-1 cells; [5]): 34.4 ± 4.5 nM

Compound: CCCCC(C)CC(C)C(=O)N(C)C(Cc1ccc(OC)cc1)C(=O)NC(C(=O)N(C)C(C(=O)N1CC(O)CC1C(=O)N1C(=O)C=CC1C)C(C)C)C(C)OC(C)=O (centres unmarked) [Compound 1m]
IC50 (PANC-1 cells; [6]): 4.68 ± 0.59 nM

Compound: CCCCC(C)CC(C)C(=O)N(C)C(Cc1ccc(OC)cc1)C(=O)NC(C(=O)N(C)C(C(=O)N1CC(F)CC1C(=O)N1C(=O)C=CC1C)C(C)C)C(C)OC(C)=O (centres unmarked) [Compound 1k]
IC50 (PANC-1 cells; [3]): 2.55 ± 0.55 nM

Compound: CCCC[C@@H](C)C[C@@H](C)C(=O)N(C)[C@@H](Cc1ccc(OC)cc1)C(=O)N[C@H](C(=O)N(C)[C@H](C(=O)N1C[C@@H](O)C[C@H]1C(=O)N1C(=O)C=C[C@@H]1C)C(C)C)[C@@H](C)NC(=O)[C@@H]1CCCN1 [Compound 16a]
solubility [1]: 210 µg/mL (≈ 242 µM)
IC50 (PANC-1 cells; [5]): 40.8 ± 14.1 nM

Compound: Nc1ccn([C@@H]2O[C@H](CO)[C@@H](O)C2(F)F)c(=O)n1 [Gemcitabine, reference compound]
tumor inhibition rate (%) (PANC-1 xenograft tumor; calculated from tumor weight, day 24, 1a, 1c, 1n 5 mg/kg, gemcitabine 20 mg/kg i.v.): 51.0%
tumor weight (PANC-1 xenograft tumor; day 24, i.v. every other day, 1a, 1n 5 mg/kg, gemcitabine 20 mg/kg, mean ± SD): 0.548 ± 0.153 g
tumor volume (PANC-1 xenograft tumor; mouse, in vivo): 561.1 ± 177.3 mm^3

Compound: CCCC[C@@H](C)C[C@@H](C)C(=O)N(C)[C@@H](Cc1ccc(OC)cc1)C(=O)N[C@H](C(=O)N(C)[C@H](C(=O)N1C[C@@H](O)C[C@H]1C(=O)N1C(=O)C=C[C@@H]1C)C(C)C)[C@@H](C)NC(=O)[C@@H](N)CCC(N)=O [Compound 16i]
solubility [1]: 530 µg/mL (≈ 591 µM)
IC50 (PANC-1 cells; [5]): 740 ± 713 nM

Compound: CCCCC(C)CC(C)C(=O)N(C)C(Cc1ccc(OC)cc1)C(=O)NC(C(=O)N(C)C(C(=O)N1CC(O)CC1C(=O)N1CC=CC1=O)C(C)C)C(C)OC(C)=O (centres unmarked) [Compound 1l]
IC50 (PANC-1 cells; [3]): 134 ± 78.2 nM

Compound: CCCCC(C)CC(C)C(=O)N(C)C(Cc1ccc(OC)cc1)C(=O)NC(COC(C)=O)C(=O)N(C)C(C(=O)N1CC(O)CC1C(=O)N1C(=O)C=CC1C)C(C)C (centres unmarked) [Compound 1d]
IC50 (PANC-1 cells; [3]): 2.15 ± 0.37 nM

Compound: CCCC[C@@H](C)C[C@@H](C)C(=O)N(C)[C@@H](Cc1ccc(OC)cc1)C(=O)N[C@H](C(=O)N(C)[C@H](C(=O)N1C[C@@H](O)C[C@H]1C(=O)N1C(=O)C=C[C@@H]1C)C(C)C)[C@@H](C)NC(=O)[C@@H](N)Cc1ccccc1 [Compound 16l]
solubility [1]: 130 µg/mL (≈ 142 µM)
IC50 (PANC-1 cells; [5]): 55.4 ± 14.7 nM

Compound: CCCCC(C)CC(C)C(=O)N(C)C(Cc1ccc(OC)cc1)C(=O)NC(C(=O)N(C)C(C(=O)N1CC(O)CC1C(=O)N1C(=O)C=CC1C)C(C)C)C(C)O (centres unmarked) [Compound 14a]
IC50 (PANC-1 cells; [3]): 1160 ± 195 nM

Compound: CCCC[C@@H](C)C[C@@H](C)C(=O)N(C)[C@@H](Cc1ccc(OC)cc1)C(=O)N[C@H](C(=O)N(C)[C@H](C(=O)N1C[C@@H](O)C[C@H]1C(=O)N1C(=O)C=C[C@@H]1C)C(C)C)[C@@H](C)NC(=O)CNC [Compound 16d]
solubility [1]: 810 µg/mL (≈ 964 µM)
IC50 (PANC-1 cells; [5]): 16.2 ± 6.72 nM

Compound: CCCCC(C)CC(C)C(=O)N(C)C(Cc1ccc(OC)cc1)C(=O)NC(C(=O)N(C)C(C(=O)N1CC(O)CC1C(=O)N1C(=O)C=CC1C)C(C)C)C(C)NC(=S)NC (centres unmarked) [Compound 14b]
IC50 (PANC-1 cells; [4]): 1.06 ± 0.35 nM

Compound: CCCCC(C)CC(C)C(=O)N(C)C(Cc1ccc(O)cc1)C(=O)NC(C(=O)N(C)C(C(=O)N1CC(O)CC1C(=O)N1C(=O)C=CC1C)C(C)C)C(C)OC(C)=O (centres unmarked) [Compound 14c]
IC50 (PANC-1 cells; [3]): 5.31 ± 1.46 nM

Compound: CCCC[C@@H](C)C[C@@H](C)C(=O)N(C)[C@@H](Cc1ccc(OC)cc1)C(=O)N[C@H](C(=O)N(C)[C@H](C(=O)N1C[C@@H](O)C[C@H]1C(=O)N1C(=O)C=C[C@@H]1C)C(C)C)[C@@H](C)NC(=O)[C@@H](N)[C@@H](C)O [Compound 16b]
solubility [1]: 410 µg/mL (≈ 471 µM)
IC50 (PANC-1 cells; [5]): 116 ± 54 nM

Compound: CCCC[C@@H](C)C[C@@H](C)C(=O)N(C)[C@@H](Cc1ccc(OC)cc1)C(=O)N[C@H](C(=O)N(C)[C@H](C(=O)N1C[C@@H](O)C[C@H]1C(=O)N1C(=O)C=C[C@@H]1C)C(C)C)[C@@H](C)NC(=O)[C@@H](N)CO [Compound 16j]
solubility [1]: 360 µg/mL (≈ 421 µM)
IC50 (PANC-1 cells; [5]): 184 ± 33.2 nM

Compound: CCCC[C@@H](C)C[C@@H](C)C(=O)N(C)[C@@H](Cc1ccc(OC)cc1)C(=O)N[C@H](C(=O)N(C)[C@H](C(=O)N1C[C@@H](O)C[C@H]1C(=O)N1C(=O)C=C[C@@H]1C)C(C)C)[C@@H](C)NC(=O)CN [Compound 16g]
solubility [1]: 160 µg/mL (≈ 194 µM)
IC50 (PANC-1 cells; [5]): 43.1 ± 29.8 nM

Compound: CCCCC(C)CC(C)C(=O)N(C)C(Cc1ccc(-c2ccccc2)cc1)C(=O)NC(C(=O)N(C)C(C(=O)N1CC(O)CC1C(=O)N1C(=O)C=CC1C)C(C)C)C(C)OC(C)=O (centres unmarked) [Compound 1j]
IC50 (PANC-1 cells; [3]): < 1 nM
IC50 (PANC-1 cells; [6]): 0.7 ± 0.07 nM

Compound: CCCC[C@@H](C)C[C@@H](C)C(=O)N(C)[C@@H](Cc1ccc(OC)cc1)C(=O)N[C@H](C(=O)N(C)[C@H](C(=O)N1C[C@@H](O)C[C@H]1C(=O)N1C(=O)C=C[C@@H]1C)C(C)C)[C@@H](C)NC(=O)[C@@H](N)CCSC [Compound 16f]
solubility [1]: 170 µg/mL (≈ 189 µM)
IC50 (PANC-1 cells; [5]): 13.1 ± 6.3 nM

Compound: CCCC[C@@H](C)C[C@@H](C)C(=O)N(C)[C@@H](Cc1ccc(OC)cc1)C(=O)N[C@H](C(=O)N(C)[C@H](C(=O)N1C[C@@H](O)C[C@H]1C(=O)N1C(=O)C=C[C@@H]1C)C(C)C)[C@@H](C)NC(=O)[C@@H](N)CC(C)C [Compound 16e]
solubility [1]: 230 µg/mL (≈ 261 µM)
IC50 (PANC-1 cells; [5]): 34.2 ± 6.36 nM

remaining percentage in mouse plasma after 2 h [2]: 0.90%
Compound: CC(C)[N+](C)(CCOC(=O)C1c2ccccc2Oc2ccccc21)C(C)C [bromopropyl, Propantheline bromide, reference compound]

From PMC11679793, “Structure-Activity Relationship Study of Majusculamide D: Overcoming Metabolic Instability and Severe Toxicity with a Fluoro Analogue” (Marine Drugs, 2024)
